Assay results: ChEMBL document CHEMBL1201862, “PubChem BioAssay data set” (2004)
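Where inhibition never reached the appropriate level, the endpoint shown equals the highest concentration tested. Otherwise, values were interpolated linearly from a five-concentration, 48-hour dose response in 96-well plates. GI50 = concentration required for 50% inhibition of growth.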 The source made the active and inactive calls. Rule as the data show it: active = GI50 up to about 1.1 µM and inactive = higher.

Experiments:
Assay in all cases: NCI-60 cell line screen, 48 h
HOP-62 = system: HOP-62
Malme-3M = system: Malme-3M
HCT-116 = system: HCT-116
TK-10 = system: TK-10
RXF 393 = system: RXF 393
SF-268 = system: SF-268
SF-295 = system: SF-295
HT-29 = system: HT-29
NCI-H23 = system: NCI-H23
U-251 = system: U-251
HCT-15 = system: HCT-15
SF-539 = system: SF-539
MOLT-4 = system: MOLT-4
NCI-H522 = system: NCI-H522
SN12C = system: SN12C
SW-620 = system: SW-620
SNB-75 = system: SNB-75
EKVX = system: EKVX
LOX IMVI = system: LOX IMVI
HOP-92 = system: HOP-92

Row | SMILES | GI50 (HOP-62) | GI50 (Malme-3M) | GI50 (HCT-116) | GI50 (TK-10) | GI50 (RXF 393) | GI50 (SF-268) | GI50 (SF-295) | GI50 (HT-29) | GI50 (NCI-H23) | GI50 (U-251) | GI50 (HCT-15) [µM] | GI50 (SF-539) | GI50 (MOLT-4) | GI50 (NCI-H522) | GI50 (SN12C) | GI50 (SW-620) | GI50 (SNB-75) | GI50 (EKVX) | GI50 (LOX IMVI) | GI50 (HOP-92)
1 | Cc1ccc(S(=O)(=O)NC(=O)NC2=NC(C)(C)N(c3ccc(Cl)c(Cl)c3)C(N)=N2)cc1 | 7.59 µM (inactive) | 4.01 µM (inactive) | 3.72 µM (inactive) | 84.7 µM (inactive) | 66.7 µM (inactive) | 20.5 µM (inactive) | 41.5 µM (inactive) | 28.7 µM (inactive) | 11.4 µM (inactive) | 5.68 µM (inactive) | 61.2 | 29.2 µM (inactive) | 7.43 µM (inactive) | > 100 µM (inactive) | 20.6 µM (inactive) | 4.66 µM (inactive) | 31.6 µM (inactive) | > 100 µM (inactive) | – | –
2 | CN(CCCNC(=O)c1cn(C)c2c1ccc1ccccc12)CCCNC(=O)c1cn(C)c2c1ccc1ccccc12 | 1.61 µM (inactive) | – | 1.49 µM (inactive) | – | 1.65 µM (inactive) | 1.49 µM (inactive) | 4.6 µM (inactive) | 1.55 µM (inactive) | 1.51 µM (inactive) | 2.4 µM (inactive) | 1.73 | – | – | – | 1.41 µM (inactive) | 2.59 µM (inactive) | – | 1.7 µM (inactive) | 1.82 µM (inactive) | 1.42 µM (inactive)
3 | C=C(C)C(=O)CC[C@@H](C)[C@H]1[C@@H](OC2OC(CO)C(O)C(O)C2O)C[C@@]2(C)[C@@H]3C[C@H](O)C4C(C)(C)[C@@H](OC5OC(CO)C(O)C(O)C5O)CC[C@@]45C[C@@]35CC[C@]12C (stereo not given in full) | > 100 µM (inactive) | > 100 µM (inactive) | > 100 µM (inactive) | > 100 µM (inactive) | – | > 100 µM (inactive) | 71.6 µM (inactive) | > 100 µM (inactive) | 87.3 µM (inactive) | > 100 µM (inactive) | > 100 | 89.9 µM (inactive) | 62.1 µM (inactive) | 80.4 µM (inactive) | 68.1 µM (inactive) | > 100 µM (inactive) | > 100 µM (inactive) | > 100 µM (inactive) | > 100 µM (inactive) | > 100 µM (inactive)
4 | Cc1ccc([S+]([O-])c2cccs2)cc1 (stereo not given) | > 100 µM (inactive) | > 100 µM (inactive) | > 100 µM (inactive) | > 100 µM (inactive) | > 100 µM (inactive) | > 100 µM (inactive) | > 100 µM (inactive) | > 100 µM (inactive) | > 100 µM (inactive) | > 100 µM (inactive) | > 100 | > 100 µM (inactive) | > 100 µM (inactive) | – | > 100 µM (inactive) | > 100 µM (inactive) | – | > 100 µM (inactive) | – | > 100 µM (inactive)
5 | CC1(Br)CC2OC3(Br)C=CC(C)(O)C2(CC1=O)C3(C)C (stereo not given) | > 100 µM (inactive) | > 100 µM (inactive) | > 92 µM (inactive) | > 100 µM (inactive) | – | > 100 µM (inactive) | > 100 µM (inactive) | > 100 µM (inactive) | > 100 µM (inactive) | > 100 µM (inactive) | > 100 | > 100 µM (inactive) | > 94 µM (inactive) | 53.3 µM (inactive) | > 100 µM (inactive) | > 100 µM (inactive) | 64.6 µM (inactive) | > 100 µM (inactive) | > 100 µM (inactive) | 64.4 µM (inactive)
6 | OC12CCCCCC1(N1CCOCC1)c1ccccc12 (stereo not given) | > 100 µM (inactive) | > 100 µM (inactive) | > 100 µM (inactive) | > 100 µM (inactive) | > 100 µM (inactive) | > 100 µM (inactive) | > 100 µM (inactive) | > 100 µM (inactive) | > 100 µM (inactive) | > 100 µM (inactive) | > 100 | > 100 µM (inactive) | > 100 µM (inactive) | > 100 µM (inactive) | > 100 µM (inactive) | > 100 µM (inactive) | > 100 µM (inactive) | – | > 100 µM (inactive) | –
7 | O=C(Cc1ccccc1)NN1C(=O)C(Cl)C1c1cc(Br)cc(Br)c1O (stereo not given) | 14 µM (inactive) | 17.7 µM (inactive) | 3.21 µM (inactive) | 17.8 µM (inactive) | 17.7 µM (inactive) | 3.63 µM (inactive) | 12.3 µM (inactive) | 21.6 µM (inactive) | 12.2 µM (inactive) | 13 µM (inactive) | 6.79 | – | 2.62 µM (inactive) | 3.8 µM (inactive) | 21.3 µM (inactive) | 7.14 µM (inactive) | 16.2 µM (inactive) | 7.76 µM (inactive) | 9.95 µM (inactive) | –
8 | CC(C)=CCC\C(C)=C/C=C/C(C)=C\C=C\C(C)=C/C=C/C=C(C)\C=C\C=C(C)/C=C/C=C(/C)CCC=C(C)C | > 100 µM (inactive) | > 100 µM (inactive) | > 100 µM (inactive) | > 100 µM (inactive) | > 100 µM (inactive) | > 100 µM (inactive) | > 100 µM (inactive) | > 100 µM (inactive) | – | – | > 100 | > 100 µM (inactive) | > 100 µM (inactive) | – | > 100 µM (inactive) | > 100 µM (inactive) | > 100 µM (inactive) | > 100 µM (inactive) | > 100 µM (inactive) | > 100 µM (inactive)
